Patent publication US5998488A, “Ophthalmic composition” (Lion Corporation, priority 1994, dated 1999)

Assays:
[1] = test system: E. coli, P. aeru, S. aureus, A. nigar, Candida; assay: Antimicrobial test (preservative effectiveness test, USP), microorganism type not specified; type: cell-based
Procedure: Using bacteria Escherichia coli (E. coli), Pseudomonas aeruginosa (P. aeru), and Stapyrococcus aureus (S. aureus) and fungi Aspergillus nigar (A. nigar) and Candida albicans (Candida) as infectious microorganisms, a preservative effectiveness test was carried out according to the Pharmacopoeia of the United States.
++: microorganisms died within 5 days
+: microorganisms died in 6-10 days
-:microorganisms died in 11-15 days or over 15 days
Solutions were prepared in accordance with the formulation shown in Experiment 1 in a conventional manner as used in the preparation of eye drops while the amount of disodium ethylenediaminetetraacetate (EDTA-2Na) blended was in the range of 0.002 to 0.3%. The solutions were subject to the antimicrobial test of Experiment 3 and evaluated for antimicrobial activity according to the same criterion as above.
Solutions of the following formulation were prepared in a conventional manner as used in the preparation of eye drops.
The solutions were subject to the antimicrobial test of Experiment 3 and evaluated for antimicrobial activity according to the same criterion as above.
Solutions of the formulation shown in Table 7 were prepared to a total amount of 1,000 g in a conventional manner as used in the preparation of eye drops. […] The ophthalmic solutions were subject to the same tests as in Experiments 1 and 3. In the test of Experiment 3, the ophthalmic solutions were evaluated for antimicrobial activity according to the same criterion as before.

[2] = Benzalkonium chloride adsorption test (soft contact lenses, lens not given); type: physicochemical; conditions: α-cyclodextrin replaced by the other cyclodextrin
Procedure: (§1) The percent inhibition of benzalkonium chloride adsorption to commercially available soft contact lenses was determined by the following test.
(§2) Benzalkonium chloride adsorption test A 30-ml vial was charged with 10 ml of the solution and a soft contact lens was immersed therein. In a constant temperature tank at 25° C., the vial was shaken for 24 hours. After the contact lens was removed from the vial, the concentration of benzalkonium chloride in the solution was quantitatively determined by high performance liquid chromatography. A percent inhibition of adsorption was calculated according to the following formula.
(§3) As a control, the above procedure was repeated except that no contact lens was immersed.
(§4) Inhibition of adsorption (%)=(concentration of benzalkonium chloride in sample solution)/(concentration of benzalkonium chloride in control solution)×100
Solutions of the formulation shown in Table 7 were prepared to a total amount of 1,000 g in a conventional manner as used in the preparation of eye drops. Ophthalmic solutions of Examples 2 to 13 were obtained. The ophthalmic solutions were subject to the same tests as in Experiments 1 and 3. In the test of Experiment 3, the ophthalmic solutions were evaluated for antimicrobial activity according to the same criterion as before.

[3] = Benzalkonium chloride adsorption test (soft contact lens Seequence); type: physicochemical; conditions: α-cyclodextrin 0%; benzalkonium chloride 0.01%; 25° C., 24 hours
Procedure: (§5) A test was conducted to examine the inhibition of benzalkonium chloride adsorption to soft contact lenses. Solutions of the following formulation were prepared in a conventional manner as used in the preparation of eye drops.
as §1, §2, §3, §4
(§6) Note that Seequence, Nichicon Soft and Menicon Soft are trademarks of soft contact lenses commercially available from Bausch & Lomb, Nihon Contact K.K., and Menicon K.K., respectively.

[4] = Benzalkonium chloride adsorption test (soft contact lens Nichicon Soft μ); type: physicochemical; conditions: α-cyclodextrin 0%; benzalkonium chloride 0.01%; 25° C., 24 hours
Procedure: as §5, §1, §2, §3, §4, §6

[5] = Benzalkonium chloride adsorption test (soft contact lens Menicon Soft 72); type: physicochemical; conditions: α-cyclodextrin 0%; benzalkonium chloride 0.01%; 25° C., 24 hours
Procedure: as §5, §1, §2, §3, §4, §6

O=C([O-])CN(CCN(CC(=O)O)CC(=O)O)CC(=O)[O-].[Na+].[Na+] [EDTA-2Na, disodium ethylenediaminetetraacetate]
Effect on lowering of antimicrobial activity by α-cyclodextrin (in words) ([1]; 0.01 to 1.0% of α-cyclodextrin, remarkable at EDTA-2Na at least 0.006%): prevents a lowering of antimicrobial activity
Antimicrobial activity ([1]; EDTA-2Na 0.002%, α-cyclodextrin 0.01%): + (microorganisms died in 6-10 days)
Antimicrobial activity ([1]; EDTA-2Na 0.002%, α-cyclodextrin 0.03%): - (microorganisms died in 11-15 days or over 15 days)
Antimicrobial activity ([1]; EDTA-2Na 0.002%, α-cyclodextrin 0.05%): - (microorganisms died in 11-15 days or over 15 days)
Antimicrobial activity ([1]; EDTA-2Na 0.002%, α-cyclodextrin 0.1%): - (microorganisms died in 11-15 days or over 15 days)
Antimicrobial activity ([1]; EDTA-2Na 0.002%, α-cyclodextrin 0.3%): - (microorganisms died in 11-15 days or over 15 days)
Antimicrobial activity ([1]; EDTA-2Na 0.002%, α-cyclodextrin 0.5%): - (microorganisms died in 11-15 days or over 15 days)
Antimicrobial activity ([1]; EDTA-2Na 0.002%, α-cyclodextrin 1.0%): - (microorganisms died in 11-15 days or over 15 days)
Antimicrobial activity ([1]; EDTA-2Na 0.004%, α-cyclodextrin 0.01%): + (microorganisms died in 6-10 days)
Antimicrobial activity ([1]; EDTA-2Na 0.004%, α-cyclodextrin 0.03%): - (microorganisms died in 11-15 days or over 15 days)
Antimicrobial activity ([1]; EDTA-2Na 0.004%, α-cyclodextrin 0.05%): - (microorganisms died in 11-15 days or over 15 days)
Antimicrobial activity ([1]; EDTA-2Na 0.004%, α-cyclodextrin 0.1%): - (microorganisms died in 11-15 days or over 15 days)
Antimicrobial activity ([1]; EDTA-2Na 0.004%, α-cyclodextrin 0.3%): - (microorganisms died in 11-15 days or over 15 days)
Antimicrobial activity ([1]; EDTA-2Na 0.004%, α-cyclodextrin 0.5%): - (microorganisms died in 11-15 days or over 15 days)
Antimicrobial activity ([1]; EDTA-2Na 0.004%, α-cyclodextrin 1.0%): - (microorganisms died in 11-15 days or over 15 days)
Antimicrobial activity ([1]; EDTA-2Na 0.006%, α-cyclodextrin 0.01%): + (microorganisms died in 6-10 days)
Antimicrobial activity ([1]; EDTA-2Na 0.006%, α-cyclodextrin 0.03%): + (microorganisms died in 6-10 days)
Antimicrobial activity ([1]; EDTA-2Na 0.006%, α-cyclodextrin 0.05%): + (microorganisms died in 6-10 days)
Antimicrobial activity ([1]; EDTA-2Na 0.006%, α-cyclodextrin 0.1%): + (microorganisms died in 6-10 days)
Antimicrobial activity ([1]; EDTA-2Na 0.006%, α-cyclodextrin 0.3%): + (microorganisms died in 6-10 days)
Antimicrobial activity ([1]; EDTA-2Na 0.006%, α-cyclodextrin 0.5%): + (microorganisms died in 6-10 days)
Antimicrobial activity ([1]; EDTA-2Na 0.006%, α-cyclodextrin 1.0%): + (microorganisms died in 6-10 days)
Antimicrobial activity ([1]; EDTA-2Na 0.01%, α-cyclodextrin 0.01%): + (microorganisms died in 6-10 days)
Antimicrobial activity ([1]; EDTA-2Na 0.01%, α-cyclodextrin 0.03%): + (microorganisms died in 6-10 days)
Antimicrobial activity ([1]; EDTA-2Na 0.01%, α-cyclodextrin 0.05%): + (microorganisms died in 6-10 days)
Antimicrobial activity ([1]; EDTA-2Na 0.01%, α-cyclodextrin 0.1%): + (microorganisms died in 6-10 days)
Antimicrobial activity ([1]; EDTA-2Na 0.01%, α-cyclodextrin 0.3%): + (microorganisms died in 6-10 days)
Antimicrobial activity ([1]; EDTA-2Na 0.01%, α-cyclodextrin 0.5%): + (microorganisms died in 6-10 days)
Antimicrobial activity ([1]; EDTA-2Na 0.01%, α-cyclodextrin 1.0%): + (microorganisms died in 6-10 days)
Antimicrobial activity ([1]; EDTA-2Na 0.05%, α-cyclodextrin 0.01%): + (microorganisms died in 6-10 days)
Antimicrobial activity ([1]; EDTA-2Na 0.05%, α-cyclodextrin 0.03%): + (microorganisms died in 6-10 days)
Antimicrobial activity ([1]; EDTA-2Na 0.05%, α-cyclodextrin 0.05%): + (microorganisms died in 6-10 days)
Antimicrobial activity ([1]; EDTA-2Na 0.05%, α-cyclodextrin 0.1%): + (microorganisms died in 6-10 days)
Antimicrobial activity ([1]; EDTA-2Na 0.05%, α-cyclodextrin 0.3%): + (microorganisms died in 6-10 days)
Antimicrobial activity ([1]; EDTA-2Na 0.05%, α-cyclodextrin 0.5%): + (microorganisms died in 6-10 days)
Antimicrobial activity ([1]; EDTA-2Na 0.05%, α-cyclodextrin 1.0%): + (microorganisms died in 6-10 days)
Antimicrobial activity ([1]; EDTA-2Na 0.1%, α-cyclodextrin 0.01%): + (microorganisms died in 6-10 days)
Antimicrobial activity ([1]; EDTA-2Na 0.1%, α-cyclodextrin 0.03%): + (microorganisms died in 6-10 days)
Antimicrobial activity ([1]; EDTA-2Na 0.1%, α-cyclodextrin 0.05%): + (microorganisms died in 6-10 days)
Antimicrobial activity ([1]; EDTA-2Na 0.1%, α-cyclodextrin 0.1%): + (microorganisms died in 6-10 days)
Antimicrobial activity ([1]; EDTA-2Na 0.1%, α-cyclodextrin 0.3%): + (microorganisms died in 6-10 days)
Antimicrobial activity ([1]; EDTA-2Na 0.1%, α-cyclodextrin 0.5%): + (microorganisms died in 6-10 days)
Antimicrobial activity ([1]; EDTA-2Na 0.1%, α-cyclodextrin 1.0%): + (microorganisms died in 6-10 days)
Antimicrobial activity ([1]; EDTA-2Na 0.3%, α-cyclodextrin 0.01%): + (microorganisms died in 6-10 days)
Antimicrobial activity ([1]; EDTA-2Na 0.3%, α-cyclodextrin 0.03%): + (microorganisms died in 6-10 days)
Antimicrobial activity ([1]; EDTA-2Na 0.3%, α-cyclodextrin 0.05%): + (microorganisms died in 6-10 days)
Antimicrobial activity ([1]; EDTA-2Na 0.3%, α-cyclodextrin 0.1%): + (microorganisms died in 6-10 days)
Antimicrobial activity ([1]; EDTA-2Na 0.3%, α-cyclodextrin 0.3%): + (microorganisms died in 6-10 days)
Antimicrobial activity ([1]; EDTA-2Na 0.3%, α-cyclodextrin 0.5%): + (microorganisms died in 6-10 days)
Antimicrobial activity ([1]; EDTA-2Na 0.3%, α-cyclodextrin 1.0%): + (microorganisms died in 6-10 days)

OC[C@H]1O[C@@H]2O[C@H]3[C@H](O)[C@@H](O)[C@@H](O[C@H]4[C@H](O)[C@@H](O)[C@@H](O[C@H]5[C@H](O)[C@@H](O)[C@@H](O[C@H]6[C@H](O)[C@@H](O)[C@@H](O[C@H]7[C@H](O)[C@@H](O)[C@@H](O[C@H]8[C@H](O)[C@@H](O)[C@@H](O[C@H]1[C@H](O)[C@H]2O)O[C@@H]8CO)O[C@@H]7CO)O[C@@H]6CO)O[C@@H]5CO)O[C@@H]4CO)O[C@@H]3CO [β-cyclodextrin]
Inhibition of adsorption, cyclodextrin in place of α-cyclodextrin (in words) [2]: Approximately equivalent results

OC[C@H]1O[C@@H]2O[C@H]3[C@H](O)[C@@H](O)[C@@H](O[C@H]4[C@H](O)[C@@H](O)[C@@H](O[C@H]5[C@H](O)[C@@H](O)[C@@H](O[C@H]6[C@H](O)[C@@H](O)[C@@H](O[C@H]7[C@H](O)[C@@H](O)[C@@H](O[C@H]8[C@H](O)[C@@H](O)[C@@H](O[C@H]9[C@H](O)[C@@H](O)[C@@H](O[C@H]1[C@H](O)[C@H]2O)O[C@@H]9CO)O[C@@H]8CO)O[C@@H]7CO)O[C@@H]6CO)O[C@@H]5CO)O[C@@H]4CO)O[C@@H]3CO [γ-cyclodextrin]
Inhibition of adsorption, cyclodextrin in place of α-cyclodextrin (in words) [2]: Approximately equivalent results

OC[C@H]1O[C@@H]2O[C@H]3[C@H](O)[C@@H](O)[C@@H](O[C@H]4[C@H](O)[C@@H](O)[C@@H](O[C@H]5[C@H](O)[C@@H](O)[C@@H](O[C@H]6[C@H](O)[C@@H](O)[C@@H](O[C@H]7[C@H](O)[C@@H](O)[C@@H](O[C@H]8[C@H](O)[C@@H](O)[C@@H](O[C@H]9[C@H](O)[C@@H](O)[C@@H](O[C@H]%10[C@H](O)[C@@H](O)[C@@H](O[C@H]1[C@H](O)[C@H]2O)O[C@@H]%10CO)O[C@@H]9CO)O[C@@H]8CO)O[C@@H]7CO)O[C@@H]6CO)O[C@@H]5CO)O[C@@H]4CO)O[C@@H]3CO [δ-cyclodextrin]
Inhibition of adsorption, cyclodextrin in place of α-cyclodextrin (in words) [2]: Approximately equivalent results

benzalkonium chloride [reference compound]
Inhibition of adsorption [3]: 65%
Inhibition of adsorption [4]: 60%
Inhibition of adsorption [5]: 65%
Antimicrobial activity ([1]; boric acid 0%, borax 0%, EDTA-2Na 0.006%, α-cyclodextrin 0.03%, about pH 7.2): + (microorganisms died in 6-10 days)

hydroxyethylated cyclodextrin
Inhibition of adsorption, cyclodextrin in place of α-cyclodextrin (in words) [2]: Approximately equivalent results

methylated cyclodextrin
Inhibition of adsorption, cyclodextrin in place of α-cyclodextrin (in words) [2]: Approximately equivalent results
